Source: US11472844B2, “Peptidomimetics, method of synthesis and uses thereof” (priority 2017, dated 2022)
“Also recorded” adds a separate entry of the source. *: point of attachment. X1 = CC[N+]1=C(/C=C/C=C/C=C2N(CCCCCC(=O)NCCN3C(=O)CC(*)C3=O)c3ccc(S(=O)(=O)O)cc3C2(C)C)C(C)(C)c2cc(S(=O)(=O)[O-])ccc21

Columns and labels:
[1] = test system: neutrophils recruited to guinea pig colonic mucosa infected with Shigella flexneri; experiment: Guinea pig model of shigellosis, staining of fixed colon sections
Method: Guinea pig. The experimental protocol was approved by the french Ethic Committee Paris (n° 20140069, 2014). Young guinea pigs (Hartley, <150 g, Charles River) were anaesthetized and infected intrarectally with 10^9 CFU exponentially grown Shigella flexneri 5a (M90T) pGFP as previously described (Shim et al. 2007) (Monceaux et al. 2016). Infection occurred during 8 hours before animals were sacrificed and infected colons collected and fixed in 4% Paraformaldehyde (PFA) for two hours. For immunohistochemical staining, infected guinea pig colon samples were washed in PBS and incubated at 4° C. in PBS containing 16% sucrose for 4 hours, followed by incubation in PBS with 30% sucrose overnight. Samples were frozen in OCT (VWR 361603E) on dry ice. Frozen blocks were stored at −80 until sectioning. 10 to 30 μm sections were obtained using a cryostat CM-3050S (Leica). Tissue slices were labeled in PBS+0.1% saponin (Sigma-Aldrich) with MUB40-Cy5 or MUB40-Dylight (1 μg/ml) to localize recruited neutrophils. Slides were washed three time in PBS+0.1% saponin, three times in PBS, and three times in deionized H2O and mounted with prolong gold^tm mounting media.

human colonic mucus = experiment: Fluorescent labelling of human colonic mucus layer; assay type: binding; settings: 1 μg/mL; listed as MUB40#1-Cy5
Method: Colon explant surgical collection. In summary, human colon segments (ascending, descending, and sigmoid colon) were obtained from fully informed patients undergoing surgery for colon carcinoma and were analyzed anonymously. Patient written consent was obtained, according to the French bioethics law. None of the patients had undergone radiotherapy or chemotherapy. According to the pathologist's examination rules for the longitudinally bisected colon, a healthy segment of tissue, which was distant from the tumor region and devoid of metastatic cells, was removed. Tissues were processed according to the French Government guidelines for research on human tissues and the French Bioethics Act with the authorization no RBM 2009-50.
Fixation and staining procedures. For microscopy studies, purified or cultured cells and polymerized lactoferrin were resuspended onto 24-well plates containing 12 mm coverslips in RMPI 1640+10 mM Hepes (when cultured in the autologous plasma) and centrifuged at 300×g for 10 min. Culture media were removed and cells were fixed in 4% Paraformaldehyde (PFA) for two hours. Fixed cells were washed three times in PBS+0.1% saponin (Sigma-Aldrich), prior immunolabeling with primary antibodies in the same buffer for 1 hour (Triton 0.1% can alternatively be used for cell permeabilization). After three additional washes in PBS+0.1% saponin, secondary antibodies and fluorescent markers were incubated for one hour. […]
Antibodies, fluorescent markers. For immunofluorescence assay, lactoferrin was detected with a mouse anti-lactoferrin primary monoclonal antibody (Hycult biotech, clone 265-1K1, 1:50 dilution) and an anti-mouse-FITC conjugated secondary antibody (1:1000). Nuclei were detected with DAPI (Life Technologies), Lyophilized MUB40 peptides (MUB40#1 (SEQ ID NO: 3)-Cy5, MUB40#2 (SEQ ID NO: 4)-Cy5, MUB40#3 (SEQ ID NO: 5)-Cy5, MUB40#4 (SEQ ID NO: 6)-Cy5, MUB40#1 (SEQ ID NO: 3)-Dylight, RI-MUB40 (SEQ ID NO: 2)-Cy5, and RI-MUB40 (SEQ ID NO: 2)-Biotin) were solubilized in a phosphate buffer pH8 at a 1 mg/mL concentration and used at a 1:1000 dilution. […]

[2] = test system: guinea pig circulating neutrophils; experiment: Labelling of fixed guinea pig neutrophils; assay type: cell-based
Method: (§1) Polymorphonuclear neutrophils purification. Human polymorphonuclear neutrophils were purified as described previously (Monceaux et al. 2016). Briefly, plasma was removed by centrifugation (450×g, 15 min); blood cells were resuspended in 0.9% NaCl solution supplemented with 0.72% Dextran. After red blood cells sedimentation, white blood cells were pelleted and further separated on a two layer Percoll (GE Healthcare) (51%−42%) by centrifugation (at 240×g, 20 min). PBMC (top layer) were isolated from polymorphonuclear neutrophils (bottom layer). Red blood cells were removed from the latter fraction using CD235a (glycophorin) microbeads (negative selection) (Miltenyi Biotec). PBMCs and polymorphonuclear neutrophils were resuspended in the autologous plasma. Guinea pig and mouse polymorphonuclear neutrophils were purified with the same procedure.

[3] = test system: human neutrophil granules; experiment: Fluorescent labelling of fixed purified human neutrophils; assay type: cell-based; settings: 1 μg/mL
Method: Fixation and staining procedures. For microscopy studies, purified or cultured cells and polymerized lactoferrin were resuspended onto 24-well plates containing 12 mm coverslips in RMPI 1640+10 mM Hepes (when cultured in the autologous plasma) and centrifuged at 300×g for 10 min. Culture media were removed and cells were fixed in 4% Paraformaldehyde (PFA) for two hours. Fixed cells were washed three times in PBS+0.1% saponin (Sigma-Aldrich), prior immunolabeling with primary antibodies in the same buffer for 1 hour (Triton 0.1% can alternatively be used for cell permeabilization). After three additional washes in PBS+0.1% saponin, secondary antibodies and fluorescent markers were incubated for one hour. Coverslips were washed three time in PBS+0.1% saponin, three times in PBS, and three times in deionized H2O and mounted with prolong gold^tm mounting media.
Antibodies, fluorescent markers. For immunofluorescence assay, lactoferrin was detected with a mouse anti-lactoferrin primary monoclonal antibody (Hycult biotech, clone 265-1K1, 1:50 dilution) and an anti-mouse-FITC conjugated secondary antibody (1:1000). Nuclei were detected with DAPI (Life Technologies), Lyophilized MUB40 peptides (MUB40#1 (SEQ ID NO: 3)-Cy5, MUB40#2 (SEQ ID NO: 4)-Cy5, MUB40#3 (SEQ ID NO: 5)-Cy5, MUB40#4 (SEQ ID NO: 6)-Cy5, MUB40#1 (SEQ ID NO: 3)-Dylight, RI-MUB40 (SEQ ID NO: 2)-Cy5, and RI-MUB40 (SEQ ID NO: 2)-Biotin) were solubilized in a phosphate buffer pH8 at a 1 mg/mL concentration and used at a 1:1000 dilution. For PBMC staining CD19-APC (B lymphocytes), CD3-APC (T lymphocytes), and CD14-PercP (monocytes, macrophages) (BD Bioscience) were used at a 1:1000 dilution together with Dapi (1:1000) and MUB40-Cy5 (1 mg/mL). Actin was stained with Phalloidin-Rhodamine red X (RRX) (Jackson Immunoresearch Antibodies) used at a 1:1000 final dilution.
as §1
Confocal microscopy. […]

[4] = test system: Human hematopoietic stem cells (CD34+); experiment: Labelling of hematopoietic stem cells and derived neutrophils; assay type: cell-based
Method: Hematopoietic Stem cells (CD34+) purification, proliferation and differentiation. HSC were purified from cytapheresis products with a CD34 Microbead Kit Ultrapure, according to the manufacturer procedure (Miltenyi). Lin^−/CD34+ HSC purity yield was >98%. CD34+ HSC were cultured in StemSpan SFEM II supplemented with SCF (100 ng/ml), IL-3 (10 ng/ml), and IL-6 (100 ng/ml) at 37° C. with 5% CO2. Neutrophil differentiation was induced in StemSpan SFEM II containing G-CSF (10 ng/ml), SCF (100 ng/ml), and IL-3 (10 ng/ml) for 13 days at 37° C. with 5% CO2.

[5] = test system: recruited neutrophils and secreted lactoferrin; experiment: Labelling of human inflamed tissue biopsies; settings: malignant fibrous histiocytoma and streptococcal skin abscess biopsies, 1 μg/mL
Source text: Human inflammatory tissues. Human biopsies from patients diagnosed for malignant fibrous histiocytoma and for a streptococcal skin abscess were collected and processed at the Kremlin Bicêtre Hospital, Anatomy and Pathological Histology Department. Tissue samples were fixed in formaldehyde and further embedded in paraffin. 10 μm sections were obtained using a microtome (Leica Biosystem). Tissues were labeled with a mouse anti-lactoferrin primary monoclonal antibody (Hycult biotech, clone 265-1K1, 1:50 dilution), MUB40-Cy5 (SEQ ID NO: 3) (1 μg/mL), and Dapi (1:1000 dilution) as described below.

“Ac-C(X1)TAEGIKKFEGDGYELFKDNFPAGEKFDNDDTNDQFYTVIF-NH2 [Cy5-MUB40#1]” was tested, and the “detection of neutrophil lactoferrin secretion” value ([1]; fixed guinea pig colonic mucosa infected by Shigella flexneri, 1 μg/mL) was “successfully revealed”, the “labelling of recruited neutrophils” value ([1]; guinea pig colon, Shigella flexneri, 1 μg/ml) was “specifically labeled” and the “labelling of / binding to human colonic mucus” value (human colonic mucus) was “labelled; also recorded: conserved the ability to bind to and fluorescently label the human colonic mucus”. For the same substance, the labelling of neutrophils [2] was “efficiently labeled”, the “labelling of human neutrophil granules” value ([3]; listed as MUB40#1-Cy5) was “granular staining” and the “labelling of human neutrophil granules” value ([3]; listed as MUB40-Cy5) was “specifically labeled”. The “labelling after differentiation in polymorphonuclear neutrophils” value ([4]; G-CSF, IL-3, IL-6, 2 weeks) was “positive staining”, the “labelling of hematopoietic stem cells” value ([4]; during proliferation) was “not labelled” and the “labelling of recruited neutrophils and secreted lactoferrin” value [5] was “labeled”.
